According to ChEMBL document CHEMBL1201862, “PubChem BioAssay data set” (2004):
Blank lines part the entries; values can stand above or below the molecule they belong to. Active and inactive are the calls of the source.

Columns and labels:
[1] = control 3'UTR Renilla luciferase suppression, dose response, counter-screen for Shn3 inhibitor project, cell-based, Clone20-Shn3RL, cherry-picked (AID 624133); format: functional
[2] = Shn3 3'UTR reporter inhibitors, dose response, cell-based, Clone20 osteoblasts, firefly luciferase, cherry-picked (AID 624132); format: functional;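 also: firefly luciferase luminescence from reporter carrying the Shn3 3'UTR in osteoblasts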
[3] = HEp-2 cell cytotoxicity, dose response, cytotoxicity control for RSV inhibitor project, HTS (AID 2410); format: functional; conditions: human respiratory syncytial virus
[4] = target: T1, Corticotropin-releasing factor receptor 2/Corticotropin-releasing factor-binding protein (Homo sapiens, UniProt P24387+Q13324); experiment: Dose Response confirmation of uHTS hits for small molecule antagonists of the CRF-binding protein and CRF-R2 receptor complex.; format: functional; conditions: read-out: IC50_Mean
T1 sequence (Q13324 whole entry): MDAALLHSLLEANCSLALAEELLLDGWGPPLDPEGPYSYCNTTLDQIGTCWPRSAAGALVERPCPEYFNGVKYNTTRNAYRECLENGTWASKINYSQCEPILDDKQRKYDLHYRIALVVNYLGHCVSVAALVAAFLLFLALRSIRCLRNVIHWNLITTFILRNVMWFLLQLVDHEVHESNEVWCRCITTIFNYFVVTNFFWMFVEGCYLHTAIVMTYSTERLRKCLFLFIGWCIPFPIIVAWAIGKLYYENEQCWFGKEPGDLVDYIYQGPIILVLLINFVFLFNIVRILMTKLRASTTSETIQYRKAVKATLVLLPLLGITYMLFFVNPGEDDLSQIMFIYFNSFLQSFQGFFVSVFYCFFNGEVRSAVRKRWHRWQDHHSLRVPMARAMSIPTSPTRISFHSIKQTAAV
T1 sequence (P24387 whole entry): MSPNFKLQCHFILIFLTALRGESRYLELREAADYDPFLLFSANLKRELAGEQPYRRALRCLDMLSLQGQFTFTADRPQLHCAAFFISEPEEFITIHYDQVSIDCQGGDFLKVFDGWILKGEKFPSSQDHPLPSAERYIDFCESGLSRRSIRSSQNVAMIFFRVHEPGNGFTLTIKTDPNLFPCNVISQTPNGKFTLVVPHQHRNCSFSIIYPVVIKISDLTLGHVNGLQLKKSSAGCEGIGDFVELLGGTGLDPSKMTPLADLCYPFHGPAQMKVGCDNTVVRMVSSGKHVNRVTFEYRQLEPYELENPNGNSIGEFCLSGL

[5] = target: T1, Corticotropin-releasing factor receptor 2/Corticotropin-releasing factor-binding protein; experiment: activators of CRF receptor 2 with binding protein – uHTS hits, confirmation (AID 602473); format: functional; conditions: read-out: EC50_Mean
[6] = Luminescence Cell-Based Dose Confirmation HTS to Identify Inhibitors of Platelet Dense Granule Release. [Related pubchem assays: 1663 (Primary HTS), 1678 (Summary of Project)]; format: functional
[7] = C. albicans growth with fluconazole, confirmation, fluorescence, retest (AID 2467); format: functional, cell-based
[8] = target: Luciferin 4-monooxygenase (Photinus pyralis, UniProt P08659); experiment: firefly luciferase enzyme inhibitors, dose response, biochemical, luminescence (AID 1891)
[9] = NIH-3T3 fibroblast cytotoxicity, dose response, cytotoxicity control, cell-based, fluorescence, Alamar Blue, secondary assay (AID 2327); format: functional;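 also: NIH-3T3 mouse fibroblasts cultured with fluconazole at 8 µg/mL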
[10] = target: FAD-linked sulfhydryl oxidase ALR (Homo sapiens, UniProt P55789); experiment: inhibitors of human ALR sulfhydryl oxidase, dose response, biochemical, H2O2 detection, luminescence, cherry-pick (AID 493248)
Cytochrome P450 2C19 = Cytochrome P450 2C19 (Homo sapiens, UniProt P33261); experiment: Cytochrome panel assay with activity outcomes. Panel member name: p450-cyp2c19 Compounds with AC50 equal or less than 10 uM are considered active; format: functional
Cytochrome P450 2D6 = Cytochrome P450 2D6 (Homo sapiens, UniProt P10635);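 also: CYP2D6 member of a cytochrome P450 panel assay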
Cytochrome P450 3A4 = Cytochrome P450 3A4 (Homo sapiens, UniProt P08684);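 also: CYP3A4 tested as one member of a cytochrome P450 panel screen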
Cytochrome P450 2C9 = Cytochrome P450 2C9 (Homo sapiens, UniProt P11712)
BJ [11] = experiment: cells; format: functional, cell-based; conditions: Homo sapiens
BJ [12] = experiment: cytotoxicity toward BJ-TERT-LT-ST fibroblasts, dose response, cell-based, RAS-independent, luminescence (AID 1935); format: functional; conditions: Homo sapiens;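 also: BJ fibroblasts immortalized with TERT plus LT and ST oncogenes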
[13] = cytotoxicity toward DRD oncogenic fibroblasts, dose response, cell-based, non-viral oncogenic, luminescence (AID 1934); format: functional; conditions: Homo sapiens
BJ [14] = experiment: cytotoxicity toward BJ-TERT fibroblasts, dose response, cell-based, RAS-independent, luminescence (AID 1933); format: functional; conditions: Homo sapiens
[15] = target: T2, Rac GTPase-activating protein 1 (Homo sapiens, UniProt Q9H0H5); experiment: MgcRacGAP GTPase-activating activity inhibitors, confirmation, biochemical, ADP Hunter fluorescence, primary and confirmatory (AID 624330); format: functional
T2 sequence (Q9H0H5 whole entry): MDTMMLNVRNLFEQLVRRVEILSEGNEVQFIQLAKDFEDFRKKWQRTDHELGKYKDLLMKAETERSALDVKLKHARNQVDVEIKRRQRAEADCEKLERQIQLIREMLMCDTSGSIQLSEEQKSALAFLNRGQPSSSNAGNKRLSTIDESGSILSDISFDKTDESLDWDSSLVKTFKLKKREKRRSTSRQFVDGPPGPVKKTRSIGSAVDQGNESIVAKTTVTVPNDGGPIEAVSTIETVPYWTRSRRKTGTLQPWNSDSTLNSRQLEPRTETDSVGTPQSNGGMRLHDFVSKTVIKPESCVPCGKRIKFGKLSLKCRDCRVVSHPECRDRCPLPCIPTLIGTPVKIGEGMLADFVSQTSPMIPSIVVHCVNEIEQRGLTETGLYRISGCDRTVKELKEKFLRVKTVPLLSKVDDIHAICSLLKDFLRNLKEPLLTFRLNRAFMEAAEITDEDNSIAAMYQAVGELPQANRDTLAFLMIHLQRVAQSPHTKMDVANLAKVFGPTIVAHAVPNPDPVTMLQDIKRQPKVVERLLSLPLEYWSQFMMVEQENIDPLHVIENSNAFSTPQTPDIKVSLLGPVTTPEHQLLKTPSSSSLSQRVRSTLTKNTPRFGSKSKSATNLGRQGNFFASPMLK

[16] = inhibitors of HIV Env-driven cell fusion, dose response, cherry-pick (AID 652057); format: functional, cell-based
Paired box protein Pax-8 = Paired box protein Pax-8 (Homo sapiens, UniProt Q06710); experiment: inhibitors of PAX8-driven TPO luciferase reporter, dose response, RMG-I cells, cherry-pick (AID 687027); format: functional, cell-based;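 also: luciferase reporter driven by Pax8 target thyroperoxidase promoter measured by SteadyGlo luminescence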
Chain of Paired box protein Pax-8 (Q06710 whole entry): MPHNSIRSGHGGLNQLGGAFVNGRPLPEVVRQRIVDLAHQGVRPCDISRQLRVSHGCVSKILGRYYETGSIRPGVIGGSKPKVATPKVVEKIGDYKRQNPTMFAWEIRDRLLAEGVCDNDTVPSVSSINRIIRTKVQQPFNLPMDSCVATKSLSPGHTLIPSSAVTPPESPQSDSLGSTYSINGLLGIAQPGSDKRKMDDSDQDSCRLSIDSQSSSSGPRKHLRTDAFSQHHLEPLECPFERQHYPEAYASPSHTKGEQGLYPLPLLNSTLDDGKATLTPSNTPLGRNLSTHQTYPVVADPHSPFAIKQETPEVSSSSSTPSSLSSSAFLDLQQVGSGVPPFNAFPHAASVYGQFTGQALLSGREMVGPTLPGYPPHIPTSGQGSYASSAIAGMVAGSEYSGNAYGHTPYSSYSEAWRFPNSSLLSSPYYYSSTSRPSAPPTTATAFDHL

Chain of Cytochrome P450 2C19 (P33261 whole entry): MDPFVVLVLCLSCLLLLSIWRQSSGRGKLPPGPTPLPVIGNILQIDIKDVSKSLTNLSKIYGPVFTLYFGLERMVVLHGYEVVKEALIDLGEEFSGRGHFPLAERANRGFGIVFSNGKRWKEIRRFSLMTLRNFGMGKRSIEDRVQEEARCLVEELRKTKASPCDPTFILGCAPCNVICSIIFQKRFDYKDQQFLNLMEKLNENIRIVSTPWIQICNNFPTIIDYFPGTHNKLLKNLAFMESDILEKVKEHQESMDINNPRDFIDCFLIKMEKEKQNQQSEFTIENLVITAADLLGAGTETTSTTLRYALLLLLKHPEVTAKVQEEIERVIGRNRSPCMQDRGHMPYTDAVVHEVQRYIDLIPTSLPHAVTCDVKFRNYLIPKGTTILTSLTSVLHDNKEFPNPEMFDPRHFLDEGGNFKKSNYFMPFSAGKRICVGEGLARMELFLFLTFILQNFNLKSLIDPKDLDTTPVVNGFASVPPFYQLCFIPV
Chain of Cytochrome P450 3A4 (P08684 whole entry): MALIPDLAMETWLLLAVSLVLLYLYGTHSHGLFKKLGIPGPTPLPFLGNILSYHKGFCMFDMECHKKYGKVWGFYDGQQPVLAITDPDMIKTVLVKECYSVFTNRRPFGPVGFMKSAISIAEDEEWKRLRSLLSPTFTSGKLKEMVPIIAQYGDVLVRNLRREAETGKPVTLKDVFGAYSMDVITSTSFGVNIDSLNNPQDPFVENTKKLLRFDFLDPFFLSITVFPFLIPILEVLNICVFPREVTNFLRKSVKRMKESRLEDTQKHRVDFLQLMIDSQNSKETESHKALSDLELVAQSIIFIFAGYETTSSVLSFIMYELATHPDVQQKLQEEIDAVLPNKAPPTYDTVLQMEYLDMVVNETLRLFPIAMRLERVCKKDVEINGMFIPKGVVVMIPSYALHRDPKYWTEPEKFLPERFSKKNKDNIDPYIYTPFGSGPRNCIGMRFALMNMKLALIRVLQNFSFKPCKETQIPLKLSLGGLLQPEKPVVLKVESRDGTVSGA
Chain of FAD-linked sulfhydryl oxidase ALR (P55789 whole entry): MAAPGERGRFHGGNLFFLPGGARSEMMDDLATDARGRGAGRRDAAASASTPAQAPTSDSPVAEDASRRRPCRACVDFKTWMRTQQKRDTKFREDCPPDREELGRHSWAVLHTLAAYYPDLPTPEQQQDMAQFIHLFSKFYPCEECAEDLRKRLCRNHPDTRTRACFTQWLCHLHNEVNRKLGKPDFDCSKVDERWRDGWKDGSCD
Chain of Luciferin 4-monooxygenase (P08659 whole entry): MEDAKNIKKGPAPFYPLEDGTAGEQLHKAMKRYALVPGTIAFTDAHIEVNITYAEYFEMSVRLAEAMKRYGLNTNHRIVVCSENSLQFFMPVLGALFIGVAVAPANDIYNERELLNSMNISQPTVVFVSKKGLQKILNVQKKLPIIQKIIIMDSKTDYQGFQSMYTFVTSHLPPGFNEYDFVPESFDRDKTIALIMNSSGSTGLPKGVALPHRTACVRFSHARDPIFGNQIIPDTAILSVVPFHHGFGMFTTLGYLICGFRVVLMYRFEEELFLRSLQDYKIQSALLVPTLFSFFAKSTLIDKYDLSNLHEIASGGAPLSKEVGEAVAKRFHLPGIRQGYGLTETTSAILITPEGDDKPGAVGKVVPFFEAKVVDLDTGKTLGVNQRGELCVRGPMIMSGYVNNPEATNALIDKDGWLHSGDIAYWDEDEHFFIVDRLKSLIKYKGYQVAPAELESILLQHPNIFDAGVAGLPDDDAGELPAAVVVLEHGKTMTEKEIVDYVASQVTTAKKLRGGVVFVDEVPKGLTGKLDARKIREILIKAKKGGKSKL
Chain of Cytochrome P450 2C9 (P11712 whole entry): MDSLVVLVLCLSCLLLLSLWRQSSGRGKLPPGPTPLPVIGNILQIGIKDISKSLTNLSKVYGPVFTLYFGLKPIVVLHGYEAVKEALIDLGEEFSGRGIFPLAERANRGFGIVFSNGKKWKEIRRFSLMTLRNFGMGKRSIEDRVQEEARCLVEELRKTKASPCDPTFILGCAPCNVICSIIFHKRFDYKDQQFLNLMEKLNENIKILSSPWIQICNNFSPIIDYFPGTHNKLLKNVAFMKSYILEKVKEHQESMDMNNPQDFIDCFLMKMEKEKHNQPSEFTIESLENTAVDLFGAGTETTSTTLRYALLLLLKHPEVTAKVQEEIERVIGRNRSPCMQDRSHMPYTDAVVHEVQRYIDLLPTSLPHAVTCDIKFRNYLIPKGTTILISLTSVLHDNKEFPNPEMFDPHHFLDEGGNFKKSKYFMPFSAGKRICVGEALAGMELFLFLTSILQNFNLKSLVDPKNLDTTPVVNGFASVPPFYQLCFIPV
Chain of Cytochrome P450 2D6 (P10635 whole entry): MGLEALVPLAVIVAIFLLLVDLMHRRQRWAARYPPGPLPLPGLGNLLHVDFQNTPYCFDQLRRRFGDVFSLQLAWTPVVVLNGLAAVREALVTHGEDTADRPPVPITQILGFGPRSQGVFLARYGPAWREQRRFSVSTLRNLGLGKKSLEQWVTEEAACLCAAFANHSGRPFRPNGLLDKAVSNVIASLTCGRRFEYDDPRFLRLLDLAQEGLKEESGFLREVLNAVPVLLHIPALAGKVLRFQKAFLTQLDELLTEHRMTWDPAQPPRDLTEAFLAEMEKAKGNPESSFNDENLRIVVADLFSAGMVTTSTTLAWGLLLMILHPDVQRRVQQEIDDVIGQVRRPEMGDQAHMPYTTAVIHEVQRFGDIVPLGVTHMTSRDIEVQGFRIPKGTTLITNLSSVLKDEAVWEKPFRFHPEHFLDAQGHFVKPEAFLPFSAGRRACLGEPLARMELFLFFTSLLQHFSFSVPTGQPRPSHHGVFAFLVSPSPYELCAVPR

SMILES: CCc1c(C)nc2cc(-c3ccc(OC)c(OC)c3)nn2c1NCC1CC1
AC50 [1]: 5.44 µM (active)
AC50 [2]: 5.11 µM (active)
CC50 [3]: 13.7 µM (active)

SMILES: CCCOc1cccc(-c2cc(C(=O)NN=C(S)NCC)c3ccccc3n2)c1
EC50 [6]: > 112 µM (not active)
EC50 [7]: > 38 µM (not active)
EC50 [8]: 1.41 µM (active)
EC50 [9]: > 160 µM (inactive)

SMILES: CCC(CO)Nc1nc2ccc(Cl)cc2c2ccccc12 (stereo unspecified)
CC50 [3]: 14.5 µM (active)

SMILES: COc1ccccc1C(=O)Nc1ccc(S(=O)(=O)N2CCCCC2c2cccnc2)cc1 (stereo unspecified)
CC50 [3]: 31.9 µM (active)

SMILES: Cc1nc(Nc2ccccc2Cl)sc1C(=O)Nc1ccccc1
EC50 [7]: > 38 µM (not active)
EC50 [9]: 28.6 µM (active)

SMILES: CN(Cc1ccccc1)S(=O)(=O)c1ccc(C(=O)Nc2nnc(C3CC3)o2)cc1
EC50 [7]: 1.76 µM (active)
EC50 [9]: > 160 µM (inactive)

SMILES: Nc1ccc(C(=O)c2cccs2)cc1[N+](=O)[O-]
CC50 [3]: 36.8 µM (active)

SMILES: CCCn1c(C(C)Nc2nc(-c3ccc(Cl)c([N+](=O)[O-])c3)cs2)nc2ccccc21 (stereo unspecified)
CC50 [3]: 29.7 µM (active)

SMILES: CCOC(=O)c1nnn(-c2nonc2N)c1CN(C)C1CCCCC1
IC50 [4]: > 47.1 µM (inactive)
EC50 [5]: > 53 µM (inactive)

SMILES: CC(C)NC(=O)COC(=O)c1cccc(NS(=O)(=O)/C=C/c2ccccc2)c1
EC50 [9]: > 160 µM (inactive)

SMILES: C=CCOc1ccc(CN(C)CC(O)COc2cccc3ccccc23)cc1 (stereo unspecified)
CC50 [3]: 26.1 µM (active)

SMILES: CCCn1c(SCC(=O)Nc2ccccc2OC)nnc1-c1ccco1
EC50 (BJ [11]): 50.9 µM (active)
EC50 (BJ [12]): > 150 µM (inconclusive)
EC50 [13]: 21.1 µM (active)
EC50 (BJ [14]): 29.2 µM (active)

SMILES: Cc1cc(Nc2nc3ccccc3nc2O)n(-c2ccccc2)n1
CC50 [3]: 16.6 µM (active)

SMILES: CCC1=Nc2cc(C(=O)NCCN3CCOCC3)ccc2Sc2ccc(Br)cc21
EC50 (BJ [11]): > 150 µM (not active)
EC50 (BJ [12]): > 150 µM (not active)
EC50 [13]: > 150 µM (not active)
EC50 (BJ [14]): > 150 µM (not active)

SMILES: CCOC(=O)c1[nH]c(C)c(C(=O)N2CCN(c3cccc(Cl)c3)CC2)c1C
CC50 [3]: 20.9 µM (active)

SMILES: Cc1ccc2nc(N=C(N)NC(=O)N3c4ccccc4Sc4ccccc43)nc(C)c2c1
CC50 [3]: 12.8 µM (active)

SMILES: O=C(CSc1nc(-c2ccco2)cc(C(F)(F)F)n1)NCCCN1CCOCC1
IC50 [4]: > 47.1 µM (inactive)
EC50 [5]: > 53 µM (inactive)

SMILES: C[C@H]1CN([C@@H](C)CO)S(=O)(=O)c2ccc(-c3cccc(F)c3)cc2O[C@H]1CN(C)S(=O)(=O)c1ccccc1
AC50 [16]: 25.7 µM (active)

SMILES: CC/C(=N\NC(N)=O)c1ccc(OC(F)F)cc1
CC50 [3]: 27.5 µM (active)

Results, then the molecule that gave them:

IC50 [4]: > 47.1 µM (inactive)
EC50 [5]: > 53 µM (inactive)
SMILES: CCOc1ccc(NC(=O)CSc2ccc3nnc(-c4cccnc4)n3n2)cc1

IC50 [4]: > 47.1 µM (inactive)
EC50 [5]: > 53 µM (inactive)
SMILES: O=C(COC(=O)C1CCN(S(=O)(=O)c2ccc3c(c2)OCCO3)CC1)NC1CCS(=O)(=O)C1 (stereo unspecified)

AC50 [10]: 4.1 µM (active)
SMILES: COc1cccc(N2CCN(CC(=O)NCc3cccs3)CC2)c1

AC50 (Cytochrome P450 2C19; read-out: AC50): 25.1 µM (inconclusive)
AC50 (Cytochrome P450 2D6): 14.1 µM (inconclusive)
AC50 (Cytochrome P450 3A4): 22.4 µM (inconclusive)
AC50 (Cytochrome P450 2C9): 3.55 µM (inconclusive)
SMILES: Cc1ccccc1C(=O)c1c[nH]c(C(=O)NCc2cccs2)c1

IC50 [4]: > 47.1 µM (inactive)
EC50 [5]: > 53 µM (inactive)
SMILES: COc1ccc2oc(C(=O)NCCC(C)C)c(C)c2c1

AC50 [10]: 10.8 µM (active)
SMILES: Cc1ccccc1NC(=O)Cc1nc(CCl)cs1

AC50 [10]: 3.46 µM (active)
SMILES: COc1ccc(NCc2nc3ccccc3n2C)cc1

AC50 (Cytochrome P450 2C19; read-out: AC50): 22.4 µM (inconclusive)
AC50 (Cytochrome P450 3A4): 17.8 µM (inconclusive)
SMILES: COc1cc(C(=O)N2CCC(NC(=O)C(Cc3ccc(C(C)C)cc3)NC(C)=O)CC2)cc(OC)c1OC (stereo unspecified)

IC50 [4]: > 47.1 µM (inactive)
EC50 [5]: > 53 µM (inactive)
SMILES: O=C(c1ccccc1)c1nc2ccccc2nc1O

IC50 [4]: > 47.1 µM (inactive)
EC50 [5]: > 53 µM (inactive)
SMILES: COc1cccc(NC(=O)C2CCCN(S(=O)(=O)c3ccc(-n4cnnn4)cc3)C2)c1 (stereo unspecified)

AC50 [10]: 4.59 µM (active)
SMILES: COc1cc(CNc2ncc(-c3ccc(Cl)cc3)n2C)cc(OC)c1OC

AC50 (Cytochrome P450 2C19): inconclusive
AC50 (Cytochrome P450 3A4): 15.8 µM (inconclusive)
SMILES: Cc1ccc(NC(=O)CCc2c(C)nc3ncnn3c2C)nc1

IC50 [4]: > 47.1 µM (inactive)
EC50 [5]: > 53 µM (inactive)
SMILES: COc1ccc(C(=O)Nc2ccc(C3CC3(Cl)Cl)cc2)cc1 (stereo unspecified)

AC50 [10]: 1.64 µM (active)
SMILES: Cc1ccc(NC2CCCN(C(=O)c3snnc3C)C2)cc1C (stereo unspecified)

AC50 [10]: 3.13 µM (active)
IC50 [15]: 26.8 µM (active)
SMILES: CC(C)(C)N1C(=O)c2ccc(C(=O)Nc3ccc(O)cc3)cc2C1=O

AC50 (Cytochrome P450 2C19; read-out: AC50): 39.8 µM (inconclusive)
AC50 (Cytochrome P450 3A4): 39.8 µM (inconclusive)
SMILES: COc1ccc(-n2c(=O)cnc3cnc(N(C)C)nc32)cc1

AC50 [10]: 4.78 µM (active)
SMILES: Cc1ccc(NC2CCCN(C(=O)C3CCCC3)C2)cc1C (stereo unspecified)

IC50 [4]: > 47.1 µM (inactive)
EC50 [5]: > 53 µM (inactive)
SMILES: CC(=O)Nc1ccc(OCC(O)CN2C(C)(C)CC(O)CC2(C)C)cc1 (stereo unspecified)

IC50 [4]: > 47.1 µM (inactive)
EC50 [5]: > 53 µM (inactive)
SMILES: COc1ccc(NC(=O)CN(C)C(=O)c2cccc(S(=O)(=O)N3CCN(c4ccc(F)cc4)CC3)c2)cc1

IC50 [4]: > 47.1 µM (inactive)
EC50 [5]: > 53 µM (inactive)
SMILES: CC(C)N1CCN(Cc2nc(-c3ccccc3)cs2)CC1CCO (stereo unspecified)

AC50 (Paired box protein Pax-8): 15.9 µM (active)
SMILES: O=C(C[C@@H]1C[C@H]2c3cc(NC(=O)Nc4ccc(C(F)(F)F)cc4)ccc3O[C@H]2[C@H](CO)O1)NCCc1ccccc1
